Literature values in article PMC10017685 (Nature Communications, 2023).
Like-named read-outs stand apart in the source and are kept apart here.

System: human erythrocytes
Parameters: method as in DBAASP
Conditions: cited from earlier work
[1] = toxicity class label 1 or 0, meaning of the labels not given, DBAASP HC50 data, human erythrocytes, ref DBAASP

| Sequence | Class (dedicated toxicity dataset used for toxicity classifier evaluation) [1] | Class (dedicated toxicity dataset used for toxicity classifier evaluation) |
| --- | --- | --- |
| SKVWRHWRRFWHRAHRKK [DBAASP_8105] | 0 |  |
| FLKGIKGMLGKLF [DBAASP_9109] | 0 |  |
| IAKIAGKIAKIAGKIAK [DBAASP_14997] |  | 0 |
| SKVWRHWRRFWHRAHRLH [DBAASP_9101] | 0 |  |
| FLSTALKVAANVVPTLFCKITKKC [DBAASP_1888] | 0 |  |
| FLGAIAGVAAKFLPKVFCFITKKC [DBAASP_6167] | 1 |  |
| KWKVFKKIEKMARNIRNKIVK [DBAASP_11864] | 0 |  |
| WLRRIKAWLRRIKA [DBAASP_7164] | 0 |  |
| LLKKVLKAAA [DBAASP_7358] | 1 |  |
| VKRFKKFFRKFKKFV [DBAASP_16446] | 0 |  |
| GLLDFFKGAGKELLTHLASQI [DBAASP_16390] | 0 |  |
| GIGKFLHSAKKFGKAFVGEIMNS [DBAASP_5368] | 0 |  |
| KIAKGALKALKIAKVALKAL [DBAASP_11228] | 1 |  |
| GIWKTIKSMGKVFAGKILQNL [DBAASP_699] | 0 |  |
| FLSTLLNVASKVVPTLFCKITKKC [DBAASP_1891] | 0 |  |
| GWASSIGSILGKFAKGGAQAFLQPK [DBAASP_5714] | 0 |  |
| FLPLLASLFSRLF [DBAASP_4935] | 1 |  |
| HFLGTLVNLAKKKL [DBAASP_5025] | 0 |  |
| VKRWKKWFRKWKKWV [DBAASP_16447] | 0 |  |
| FFHHFARGIVHVGKTIHRLVTG [DBAASP_9009] | 0 |  |
| GFRKIVQKIRDFLRNLV [DBAASP_11853] | 0 |  |
| FKRIVQRIKDFLR [DBAASP_3393] | 0 |  |
| ALYKTMLKKLGTMAL [DBAASP_10103] | 0 |  |
| FLGSLFSIGSKLLPGVIKLFQRKKQ [DBAASP_17526] | 1 |  |

| Sequence | Class (dedicated toxicity dataset used for toxicity classifier evaluation) [1] | Class (dedicated toxicity dataset used for toxicity classifier evaluation) |
| --- | --- | --- |
| FVDLKKIANIINSIF [DBAASP_6701] | 0 |  |
| RQIKIWFQNRRMKWKK [DBAASP_6203] | 0 |  |
| FLPGILKVAAK [DBAASP_16464] | 0 |  |
| FLPFLKSILGKIL [DBAASP_13349] | 0 |  |
| GLGSVLGKALKIGANLL [DBAASP_3821] | 0 |  |
| GLFDIWKKLRWRR [DBAASP_10054] | 0 |  |
| VCKRWKKWKRKWKKWCV [DBAASP_16449] | 0 |  |
| GLLKRIKWLL [DBAASP_3147] | 0 |  |
| GLLSNVAGLLKQFAKGGVNAVLNPK [DBAASP_5717] | 0 |  |
| MPLSWFFPRTWGKR [DBAASP_9722] | 0 |  |
| ILGAILPLVSGLLSNKL [DBAASP_4393] | 0 |  |
| KKKLAKLKLGAKLKLKGKLGA [DBAASP_13729] | 0 |  |
| ITEVITILLNRLTDRLEK [DBAASP_13425] | 0 |  |
| FLPILAGLAAKIVPKLFCLATKKC [DBAASP_2201] | 1 |  |
| GLASTIGSLLGKFAKGGAQAFLQPK [DBAASP_2288] | 0 |  |
| ILGKLLSTAAGLLKNL [DBAASP_4363] | 0 |  |
| GLFDIIKKIAESF [DBAASP_779] | 0 |  |
| VRRFAWWWAFLRR [DBAASP_5137] | 0 |  |
| FLSGIVGMLGKLF [DBAASP_2204] | 1 |  |
| ALWKTMLKKLGTMAL [DBAASP_10095] | 0 |  |
| WCRRYRVLVRGVLVRYRRCW [DBAASP_13507] | 0 |  |
| KKVLKAAA [DBAASP_7361] | 0 |  |
| FLSTLLNVASNVVPTLICKITKKC [DBAASP_1890] | 1 |  |
| HFLGTLKNLAKKIL [DBAASP_5019] | 0 |  |

| Sequence | Class (dedicated toxicity dataset used for toxicity classifier evaluation) [1] | Class (dedicated toxicity dataset used for toxicity classifier evaluation) |
| --- | --- | --- |
| FLPIVGRLISGLL [DBAASP_5287] | 0 |  |
| DSHAKRHHGYKRKFHEKHHSHRGY [DBAASP_15] | 0 |  |
| RWQWRWQWR [DBAASP_10099] | 0 |  |
| GLKKIFKAGLGSLVKGIAAHVAS [DBAASP_4416] | 1 |  |
| SKVGRHLRRFLHRAHRKL [DBAASP_7664] | 0 |  |
| HFLGTLVNLKKKIL [DBAASP_5024] | 0 |  |
| FFHHIFRGIVHVGKTIHRLVTG [DBAASP_4867] | 1 |  |
| KIGKALGKALKALGKALGKA [DBAASP_11230] | 1 |  |
| FFHHVFRGIVHVGKTIHRLVTG [DBAASP_9006] | 0 |  |
| FLPLIAGVAASILPKIFCFITKKC [DBAASP_6170] | 1 |  |
| VKKFPWWWPFLKK [DBAASP_5136] | 0 |  |
| GLLDTLKGAAKNVVGSLASKVMEKL [DBAASP_4394] | 0 |  |
| GLLKRIKLLL [DBAASP_3143] | 0 |  |
| GIMSSLMKKLKKIIKK [DBAASP_8904] |  | 0 |
| GLFDIWKKWRWRR [DBAASP_10053] | 0 |  |
| KIALKALKALKALGKALKAL [DBAASP_11232] | 1 |  |
| INWIKIGKKIIASL [DBAASP_18234] | 0 |  |
| GLLKRIATLL [DBAASP_3123] | 0 |  |
| FLPIIAGMAAKVICAITKKC [DBAASP_4210] | 1 |  |
| GILKTIKSIASKLKRKAK [DBAASP_5476] | 0 |  |
| FLSSIGKILGNLL [DBAASP_3103] | 0 |  |
| CVKVSVKVGSGVKVSVKVC [DBAASP_348] | 0 |  |
| CVKVQVKVGSGVKVQVKVC [DBAASP_350] | 0 |  |
| ILGKLLKTAAKLLSNL [DBAASP_4365] | 0 |  |
